Experimental data taken from PMC6199744, “Development of Chemical Proteomics for the Folateome and Analysis of the Kinetoplastid Folateome” (ACS Infectious Diseases, 2018).
Like-named read-outs stand apart in the source and are kept apart here.

Experiments:
Assay type in all cases: binding
[1] = target: T1, HeLa cell extract proteins (Homo sapiens, UniProt P27824)
T1 construct: endogenous in cells; host or cells: HeLa cell extract
T1 sequence (P27824 21-592): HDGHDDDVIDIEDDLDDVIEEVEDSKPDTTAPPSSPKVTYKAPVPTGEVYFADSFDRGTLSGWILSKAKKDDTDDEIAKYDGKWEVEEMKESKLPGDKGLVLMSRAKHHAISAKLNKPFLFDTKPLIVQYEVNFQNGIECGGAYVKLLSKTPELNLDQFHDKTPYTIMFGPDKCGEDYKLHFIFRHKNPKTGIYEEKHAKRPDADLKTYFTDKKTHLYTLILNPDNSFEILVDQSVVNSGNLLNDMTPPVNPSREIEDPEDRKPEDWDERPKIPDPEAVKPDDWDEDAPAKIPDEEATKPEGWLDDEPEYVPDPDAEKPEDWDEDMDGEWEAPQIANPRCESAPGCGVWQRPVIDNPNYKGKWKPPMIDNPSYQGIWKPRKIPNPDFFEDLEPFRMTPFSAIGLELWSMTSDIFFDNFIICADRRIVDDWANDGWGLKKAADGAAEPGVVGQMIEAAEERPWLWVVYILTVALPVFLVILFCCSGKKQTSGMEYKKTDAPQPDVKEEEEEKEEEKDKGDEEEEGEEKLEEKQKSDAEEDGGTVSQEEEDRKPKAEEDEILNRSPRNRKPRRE

[2] = target: T2, HeLa cell extract proteins (Homo sapiens, UniProt P55060)
T2 construct: endogenous in cells; host or cells: HeLa cell extract
T2 sequence (P55060 1-971): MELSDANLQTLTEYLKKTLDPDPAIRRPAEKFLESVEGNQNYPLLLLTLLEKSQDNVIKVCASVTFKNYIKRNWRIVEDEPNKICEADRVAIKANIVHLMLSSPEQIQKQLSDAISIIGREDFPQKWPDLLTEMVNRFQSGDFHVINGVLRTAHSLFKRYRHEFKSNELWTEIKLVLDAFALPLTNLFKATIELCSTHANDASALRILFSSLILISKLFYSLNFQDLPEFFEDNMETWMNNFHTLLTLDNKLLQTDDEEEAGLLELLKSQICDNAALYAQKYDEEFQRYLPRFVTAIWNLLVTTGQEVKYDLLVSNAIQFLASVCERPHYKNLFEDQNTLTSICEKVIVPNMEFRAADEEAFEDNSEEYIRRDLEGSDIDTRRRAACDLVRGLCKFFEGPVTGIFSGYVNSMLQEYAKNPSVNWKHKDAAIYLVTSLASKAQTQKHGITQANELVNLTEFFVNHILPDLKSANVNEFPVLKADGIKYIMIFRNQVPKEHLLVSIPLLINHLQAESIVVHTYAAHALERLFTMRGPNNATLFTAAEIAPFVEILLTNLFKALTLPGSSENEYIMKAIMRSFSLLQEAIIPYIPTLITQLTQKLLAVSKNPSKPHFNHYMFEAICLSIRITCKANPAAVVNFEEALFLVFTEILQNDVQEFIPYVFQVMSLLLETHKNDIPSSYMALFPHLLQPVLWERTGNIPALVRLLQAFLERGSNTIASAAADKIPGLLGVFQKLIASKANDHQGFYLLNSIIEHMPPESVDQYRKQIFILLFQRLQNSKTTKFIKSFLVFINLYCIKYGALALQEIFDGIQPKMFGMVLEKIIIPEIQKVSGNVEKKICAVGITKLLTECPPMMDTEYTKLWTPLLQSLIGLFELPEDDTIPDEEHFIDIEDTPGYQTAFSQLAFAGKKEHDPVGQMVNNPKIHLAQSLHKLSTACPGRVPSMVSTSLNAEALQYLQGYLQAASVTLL

[3] = target: T3, HeLa cell extract proteins (Homo sapiens, UniProt Q9UBV8)
T3 construct: endogenous in cells; host or cells: HeLa cell extract
T3 sequence (Q9UBV8 1-284): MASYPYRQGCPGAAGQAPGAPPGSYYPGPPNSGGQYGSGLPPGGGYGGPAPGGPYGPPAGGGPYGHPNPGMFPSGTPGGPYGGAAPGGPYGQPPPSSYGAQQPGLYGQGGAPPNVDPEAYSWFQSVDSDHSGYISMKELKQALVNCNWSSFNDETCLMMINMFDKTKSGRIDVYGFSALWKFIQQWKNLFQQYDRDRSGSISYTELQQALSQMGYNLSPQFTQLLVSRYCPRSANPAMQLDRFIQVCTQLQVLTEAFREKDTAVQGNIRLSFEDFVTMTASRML

[4] = target: T4, HeLa cell extract proteins (Homo sapiens, UniProt Q13263)
T4 construct: endogenous in cells; host or cells: HeLa cell extract

[5] = target: T5, HeLa cell extract proteins (Homo sapiens, UniProt Q96DE0)
T5 construct: endogenous in cells; host or cells: HeLa cell extract

[6] = target: T6, HeLa cell extract proteins (Homo sapiens, UniProt O15397)
T6 construct: endogenous in cells; host or cells: HeLa cell extract

[7] = target: T7, HeLa cell extract proteins (Homo sapiens, UniProt Q9UHX1)
T7 construct: endogenous in cells; host or cells: HeLa cell extract
T7 sequence (Q9UHX1 1-559): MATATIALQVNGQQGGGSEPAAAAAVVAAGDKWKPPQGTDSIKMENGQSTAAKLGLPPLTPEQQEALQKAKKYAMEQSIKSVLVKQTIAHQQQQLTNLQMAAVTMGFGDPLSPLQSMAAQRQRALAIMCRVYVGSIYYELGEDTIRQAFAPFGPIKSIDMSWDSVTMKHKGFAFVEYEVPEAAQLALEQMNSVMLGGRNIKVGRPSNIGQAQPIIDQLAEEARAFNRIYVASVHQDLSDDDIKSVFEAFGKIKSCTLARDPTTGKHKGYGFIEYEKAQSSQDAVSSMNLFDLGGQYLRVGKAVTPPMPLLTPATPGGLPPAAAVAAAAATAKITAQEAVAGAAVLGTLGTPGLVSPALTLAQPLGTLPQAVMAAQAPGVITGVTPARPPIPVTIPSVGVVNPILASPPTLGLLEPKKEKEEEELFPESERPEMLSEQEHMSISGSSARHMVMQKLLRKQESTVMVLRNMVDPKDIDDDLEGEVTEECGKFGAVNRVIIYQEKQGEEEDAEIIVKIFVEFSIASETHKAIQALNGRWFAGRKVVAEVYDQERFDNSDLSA

[8] = target: T8, HeLa cell extract proteins (Homo sapiens, UniProt P42345)
T8 construct: endogenous in cells; host or cells: HeLa cell extract

T5 sequence (Q96DE0 whole entry): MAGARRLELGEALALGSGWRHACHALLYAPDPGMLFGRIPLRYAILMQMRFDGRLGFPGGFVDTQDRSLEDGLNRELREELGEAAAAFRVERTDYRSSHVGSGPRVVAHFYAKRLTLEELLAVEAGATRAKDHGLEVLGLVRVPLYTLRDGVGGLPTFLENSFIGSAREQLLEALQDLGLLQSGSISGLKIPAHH
T4 sequence (Q13263 whole entry): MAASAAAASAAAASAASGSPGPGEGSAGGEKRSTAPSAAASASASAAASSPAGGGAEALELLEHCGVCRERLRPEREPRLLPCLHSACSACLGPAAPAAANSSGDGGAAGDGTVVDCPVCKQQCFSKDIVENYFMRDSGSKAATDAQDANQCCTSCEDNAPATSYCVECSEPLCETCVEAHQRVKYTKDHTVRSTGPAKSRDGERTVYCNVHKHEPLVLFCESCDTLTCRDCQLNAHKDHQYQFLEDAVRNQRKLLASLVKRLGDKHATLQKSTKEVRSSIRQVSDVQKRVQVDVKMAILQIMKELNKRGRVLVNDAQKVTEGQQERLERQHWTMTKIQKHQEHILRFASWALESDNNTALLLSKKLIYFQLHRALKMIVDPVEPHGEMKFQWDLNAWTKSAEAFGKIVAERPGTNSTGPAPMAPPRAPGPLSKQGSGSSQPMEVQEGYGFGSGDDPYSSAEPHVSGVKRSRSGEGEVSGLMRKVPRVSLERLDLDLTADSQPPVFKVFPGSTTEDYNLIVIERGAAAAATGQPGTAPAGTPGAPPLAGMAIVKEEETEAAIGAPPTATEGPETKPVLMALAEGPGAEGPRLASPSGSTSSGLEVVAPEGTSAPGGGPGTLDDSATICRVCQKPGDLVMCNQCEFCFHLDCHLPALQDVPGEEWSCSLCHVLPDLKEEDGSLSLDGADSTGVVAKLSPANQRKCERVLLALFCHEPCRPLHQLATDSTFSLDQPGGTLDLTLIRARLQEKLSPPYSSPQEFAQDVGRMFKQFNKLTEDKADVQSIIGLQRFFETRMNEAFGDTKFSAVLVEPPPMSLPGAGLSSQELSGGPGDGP
T6 sequence (O15397 whole entry): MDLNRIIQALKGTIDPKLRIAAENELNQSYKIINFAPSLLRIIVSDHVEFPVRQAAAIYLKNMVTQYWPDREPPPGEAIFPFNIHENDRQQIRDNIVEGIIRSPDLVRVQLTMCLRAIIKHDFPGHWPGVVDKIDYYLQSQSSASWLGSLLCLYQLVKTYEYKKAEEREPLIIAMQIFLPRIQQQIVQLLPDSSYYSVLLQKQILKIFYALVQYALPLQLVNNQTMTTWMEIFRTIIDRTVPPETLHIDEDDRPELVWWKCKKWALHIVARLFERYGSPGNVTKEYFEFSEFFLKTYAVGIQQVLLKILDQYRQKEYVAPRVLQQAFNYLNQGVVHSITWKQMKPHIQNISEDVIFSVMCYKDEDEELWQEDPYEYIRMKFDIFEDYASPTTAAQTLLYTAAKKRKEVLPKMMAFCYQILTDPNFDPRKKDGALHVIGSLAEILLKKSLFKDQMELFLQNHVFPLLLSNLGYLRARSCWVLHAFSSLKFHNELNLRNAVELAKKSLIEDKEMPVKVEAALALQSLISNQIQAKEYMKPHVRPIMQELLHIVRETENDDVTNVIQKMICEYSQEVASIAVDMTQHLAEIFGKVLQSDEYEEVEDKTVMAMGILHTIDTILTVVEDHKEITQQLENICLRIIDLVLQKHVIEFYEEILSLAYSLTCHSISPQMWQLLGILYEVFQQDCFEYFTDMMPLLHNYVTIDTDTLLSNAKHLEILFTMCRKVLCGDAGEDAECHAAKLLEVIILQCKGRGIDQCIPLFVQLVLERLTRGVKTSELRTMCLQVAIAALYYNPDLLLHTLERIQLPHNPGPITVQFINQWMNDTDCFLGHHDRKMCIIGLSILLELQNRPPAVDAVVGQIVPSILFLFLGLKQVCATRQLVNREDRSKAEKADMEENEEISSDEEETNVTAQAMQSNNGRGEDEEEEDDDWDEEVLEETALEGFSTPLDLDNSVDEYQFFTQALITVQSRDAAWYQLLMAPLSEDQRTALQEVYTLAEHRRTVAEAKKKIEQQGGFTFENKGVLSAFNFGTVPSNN

Compound | fold changes relative to vehicle control ([1]; protein CANX, HeLa) | fold changes relative to vehicle control ([2]; protein CSE1L, HeLa) | fold changes relative to vehicle control ([3]; HeLa, protein PEF1) | fold changes relative to vehicle control ([4]; protein TRIM28, HeLa) | fold changes relative to vehicle control ([5]; captured protein NUDT16, HeLa) | fold changes relative to vehicle control ([6]; captured protein IPO8, HeLa) | fold changes relative to vehicle control ([7]; HeLa, protein PUF60) | fold changes relative to vehicle control ([8]; captured protein mTOR, HeLa) | fold changes relative to vehicle control ([1]; HeLa, captured protein CANX) | fold changes relative to vehicle control ([3]; HeLa, captured protein PEF1) | fold changes relative to vehicle control ([5]; HeLa, captured protein NUDT16) | fold changes relative to vehicle control ([6]; protein IPO8, HeLa) | fold changes relative to vehicle control ([7]; HeLa, captured protein PUF60) | fold changes relative to vehicle control ([8]; HeLa, captured protein mTOR) | other results
Nc1nc2cccc(-c3ccccc3)c2n1Cc1ccc(Cl)c(Cl)c1 [compound 3] | 0.92 | 1.06 | 1.06 | 1.02 | 1.02 | 0.6 | 1.02 | 1.01 |  |  |  |  |  |  | 
Nc1nc2[nH]cc(CCc3ccc(C(=O)N[C@@H](CCC(=O)O)C(=O)O)cc3)c2c(=O)[nH]1 [PTX, pemetrexed] |  |  |  |  |  |  |  |  |  |  |  |  |  |  | fold changes relative to vehicle control [1]: 1.25; fold changes relative to vehicle control [2]: 0.88; fold changes relative to vehicle control [3]: 0.99; fold changes relative to vehicle control [4]: 0.97; fold changes relative to vehicle control [5]: 0.92; fold changes relative to vehicle control [6]: 0.83; fold changes relative to vehicle control [7]: 0.9; fold changes relative to vehicle control [8]: 0.99
Nc1nc2c(c(=O)[nH]1)N(C=O)C(CNc1ccc(C(=O)N[C@@H](CCC(=O)O)C(=O)O)cc1)CN2 (some centres unmarked) [LEU, leucovorin] |  | 0.94 |  | 0.88 |  |  |  |  | 1.09 | 0.95 | 0.93 | 0.86 | 1.01 | 1.05 | 
CCCCCCOc1cccc(Cc2cnc(N)nc2N)c1 [compound 2] | 2.38 | 1.52 | 0.76 | 1.44 | 0.93 | 0.8 | 1.05 | 1.1 |  |  |  |  |  |  | 
NCCOCCOCC(=O)Nc1nc2ncc(CNc3ccc(C(=O)NC(CCC(=O)O)C(=O)O)cc3)nc2c(=O)[nH]1 (centres unmarked) [compound 6] |  | 1.09 |  | 1.02 |  |  |  |  | 1.35 | 0.87 | 0.84 | 0.91 | 0.92 | 1.15 | 
CCCCCCOc1ccc(Cc2cnc(N)nc2N)cc1 [compound 1] | 1.3 | 1.02 | 0.88 | 1.12 | 0.62 | 0.55 | 1.01 | 0.89 |  |  |  |  |  |  | 
NCCCNc1ccc(C(=O)NC(CCC(=O)O)C(=O)O)cc1 (centres unmarked) [compound 7] |  | 1.04 |  | 0.9 |  |  |  |  | 1.06 | 0.99 | 1.02 | 0.82 | 0.95 | 1.2 | 
